Drawing on US12145929B2, “Piperidine derivative and pharmaceutical composition for inhibiting autotaxin comprising same” (NEXTGEN BIOSCIENCE CO., LTD., priority 2021, dated 2024), this text covers inhibition for five molecules.

In this test the target is human Autotaxin protein (Homo sapiens, UniProt Q13822). The test is described as follows: Evaluation of inhibitory activity against human Autotaxin protein (18:1 LysoPC substrate, choline assay kit, absorbance 570 nm). The test is classed as biochemical. The following applies: compound at 500 nM, 2 hours at 37° C. A digest of the protocol: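 Human Autotaxin incubated with compound (6 concentrations, 5-fold dilutions) and sonicated 18:1 LysoPC in Tris-Cl pH 8.0 buffer with KCl, CaCl2, MgCl2, NaCl and 1 mg/mL BSA, 2 h at 37° C. Released choline detected via choline oxidase/dye probe, 30 min, absorbance 570 nm. % inhibition relative to control absorbance.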

`Clc1cc(Cl)cc(CCNc2ncc(C3CC(N4CCC(c5cnn[nH]5)CC4)=NO3)cn2)c1` (centres unmarked) [Example 47, 5-(3-(4-(1H-1,2,3-triazol-5-yl)piperidin-1-yl)-4,5-dihydroisoxazol-5-yl)-N-(3,5-dichlorophenethyl)pyrimidin-2-amine] displayed an inhibition at 0.5 µM of 29.2%.

`NS(=O)(=O)C1CCN(c2nnc(-c3cnc(NC4Cc5cc(F)c(F)cc5C4)nc3)o2)CC1` [Example 65, 1-(5-(2-((5,6-Difluoro-2,3-dihydro-1H-inden-2-yl)amino)pyrimidin-5-yl)-1,3,4-oxadiazol-2-yl)piperidine-4-sulfonamide] yielded an inhibition at 0.5 µM of 58%.

Take `Fc1cc2c(cc1F)CC(Nc1ncc(-c3nnc(N4CCC(c5nnc(C(F)(F)F)o5)CC4)o3)cn1)C2` [Example 24, N-(5,6-difluoro-2,3-dihydro-1H-inden-2-yl)-5-(5-(4-(5-(trifluoromethyl)-1,3,4-oxadiazol-2-yl)piperidin-1-yl)-1,3,4-oxadiazol-2-yl)pyrimidin-2-amine]: the inhibition at 0.5 µM turned out to be 30.2%.

On to `Fc1cc2c(cc1F)CC(Nc1ncc(-c3cc(N4CCC(c5cnn[nH]5)CC4)no3)cn1)C2` [Example 38, 5-(3-(4-(1H-1,2,3-triazol-5-yl)piperidin-1-yl)isoxazol-5-yl)-N-(5,6-difluoro-2,3-dihydro-1H-inden-2-yl)pyrimidin-2-amine], for which 0.5 µM produced 53.2% inhibition.

`O=C(CCCc1nnc(NC2Cc3ccccc3C2)o1)N1CCC(c2cnn[nH]2)CC1` [Example 21, 1-(4-(1H-1,2,3-Triazol-5-yl)piperidin-1-yl)-4-(5-((2,3-dihydro-1H-inden-2-yl)amino)-1,3,4-oxadiazol-2-yl)butan-1-one]: 0.5 µM produced 64% inhibition.

What is called inhibition is the percentage by which the read-out fell short of the control. A high value points to a strong effect.
